Laboratory results reported in patent publication US6559101B2, “N- (5, 7-dimethoxy [1, 2, 4] triazolo [1, 5-a] pyrimidin-2-yl) arylsulfonamide compounds and their use as herbicides” (Dow AgroSciences LLC, priority 2000, dated 2003).

How the values were obtained:
Assay type in all cases: in vivo
[1] = system: giant foxtail (Setaria faberi); test: Preemergence herbicidal activity; conditions: scored after 3 weeks, 0 no injury, 100 complete kill or no germination
Method: (§1) The soil matrix was contained in plastic pots with a surface area of 161 square centimeters. When required to ensure good germination and healthy plants, a fungicide treatment and/or other chemical or physical treatment was applied. A weighed amount, determined by the highest rate to be tested, of each test compound was placed in a 20 mL glass vial and was dissolved in 8 mL of a 97:3 v/v (volume/volume) mixture of acetone and dimethyl sulfoxide to obtain concentrated stock solutions. […] The stock solutions obtained were diluted with a 99.9:0.1 mixture of water and Tween® 155 surfactant (ethoxylated sorbitan fatty acid ester) to obtain application solutions of known concentration. The solutions containing the highest concentration to be tested were prepared by diluting 4 mL aliquots of the stock solution with 8.5 mL of the mixture and lower concentrations were prepared by dilution of appropriate smaller portions of the stock solution. A 2.5 mL aliquot of each solution of known concentration was sprayed evenly onto the soil of each seeded pot using a Cornwall 5.0 mL glass syringe fitted with a TeeJet TN-3 hollow cone nozzle to obtain thorough coverage of the soil in each pot. Control pots were sprayed in the same manner with the aqueous mixture. A highest application rate of 4.48 kg/ha is achieved when 50 mg of test compound is employed. The treated pots and control pots were placed in a greenhouse with an approximately 15 hr photoperiod which was maintained at about 23-29° C. during the day and 22-28° C. during the night. Nutrients and water were added on a regular basis and supplemental lighting was provided with overhead metal halide 1000 Watt lamps as necessary. The water was added by top-irrigation. After 3 weeks the condition of the test plants that germinated and grew as compared with that of the untreated plants that germinated and grew was determined visually and scored on a scale of 0 to 100 percent where 0 corresponds to no injury and 100 corresponds to complete kill or no germination.

[2] = system: wild poinsettia (Euphorbia heterophylla); test: Preemergence herbicidal activity; conditions: scored after 3 weeks, 0 no injury, 100 complete kill or no germination
Method: as §1

[3] = system: cocklebur (Xanthium strumarium); test: Preemergence herbicidal activity; conditions: scored after 3 weeks, 0 no injury, 100 complete kill or no germination
Method: as §1

wild oats (Avena fatua) [4] = test: Preemergence herbicidal activity; conditions: scored after 3 weeks, 0 no injury, 100 complete kill or no germination
Method: as §1

[5] = system: lambsquarters (Chenopodium album); test: Preemergence herbicidal activity; conditions: scored after 3 weeks, 0 no injury, 100 complete kill or no germination
Method: as §1

[6] = system: blackgrass (Alopecurus myosuroides); test: Preemergence herbicidal activity; conditions: scored after 3 weeks, 0 no injury, 100 complete kill or no germination
Method: as §1

[7] = system: Rox orange sorghum (Sorghum bicolor); test: Preemergence herbicidal activity; conditions: scored after 3 weeks, 0 no injury, 100 complete kill or no germination
Method: as §1

[8] = system: barnyardgrass (Echinochloa crus-galli); test: Preemergence herbicidal activity; conditions: scored after 3 weeks, 0 no injury, 100 complete kill or no germination
Method: as §1

[9] = system: morningglory (Ipomoea hederacea); test: Preemergence herbicidal activity; conditions: scored after 3 weeks, 0 no injury, 100 complete kill or no germination
Method: as §1

[10] = system: crabgrass (Digitaria sanguinalis); test: Preemergence herbicidal activity; conditions: scored after 3 weeks, 0 no injury, 100 complete kill or no germination
Method: as §1

[11] = system: velvetleaf (Abutilion theophrasti); test: Preemergence herbicidal activity; conditions: scored after 3 weeks, 0 no injury, 100 complete kill or no germination
Method: as §1

[12] = system: pigweed (Amaranthus retroflexus); test: Preemergence herbicidal activity; conditions: scored after 3 weeks, 0 no injury, 100 complete kill or no germination
Method: as §1

[13] = system: giant foxtail (Setaria faberi); test: Postemergence herbicidal activity; conditions: scored after 2 weeks, 0 no injury, 100 complete kill
Method: (§2) Seeds of the desired test plant species were planted in Grace-Sierra MetroMix® 306 planting mixture, which typically has a pH of 6.0 to 6.8 and an organic matter content of about 30 percent, in plastic pots with a surface area of 64 square centimeters. When required to ensure good germination and healthy plants, a fungicide treatment and/or other chemical or physical treatment was applied. The plants were grown for 7-21 days in a greenhouse with an approximately 15 hr photoperiod which was maintained at about 23-29° C. during the day and 22-28° C. during the night. Nutrients and water were added on a regular basis and supplemental lighting was provided with overhead metal halide 1000 Watt lamps as necessary. The plants were employed for testing when they reached the first or second true leaf stage. A weighed amount of each test compound, determined by the highest rate to be tested, was placed in a 20 mL glass vial and was dissolved in 4 mL of a 97:3 v/v (volume/volume) mixture of acetone and dimethyl sulfoxide to obtain concentrated stock solutions. […] The concentrated stock solutions obtained were diluted with an aqueous mixture containing acetone, water, iso-propyl alcohol, dimethyl sulfoxide, Atplus 411F crop oil concentrate, and Triton X-155 surfactant (methylenebisdiamyl phenoxy polyethoxy ethanol) in a 48.5:39:10:1.5:1.0:0.02 v/v ratio to obtain spray solutions of known concentration. The solutions containing the highest concentration to be tested were prepared by diluting 2 mL aliquots of the stock solution with 13 mL of the mixture and lower concentrations were prepared by dilution of appropriate smaller portions of the stock solution. Approximately 1.5 mL aliquots of each solution of known concentration were sprayed evenly onto each of the test plant pots using a Devilbiss atomizer driven by compressed air pressure of 2 to 4 psi (140 to 280 kiloPascals) to obtain thorough coverage of each plant. Control plants were sprayed in the same manner with the aqueous mixture. In this test an application rate of 1 ppm results in the application of approximately 1 g/ha. The treated plants and control plants were placed in a greenhouse as described above and watered by sub-irrigation to prevent wash-off of the test compounds. After 2 weeks the condition of the test plants as compared with that of the untreated plants was determined visually and scored on a scale of 0 to 100 percent where 0 corresponds to no injury and 100 corresponds to complete kill.

[14] = system: chickweed (Stellaria media); test: Postemergence herbicidal activity; conditions: scored after 2 weeks, 0 no injury, 100 complete kill
Method: as §2

[15] = system: cocklebur (Xanthium strumarium); test: Postemergence herbicidal activity; conditions: scored after 2 weeks, 0 no injury, 100 complete kill
Method: as §2

wild oats (Avena fatua) [16] = test: Postemergence herbicidal activity; conditions: scored after 2 weeks, 0 no injury, 100 complete kill
Method: as §2

viola (Viola tricolor) = test: Postemergence herbicidal activity; conditions: scored after 2 weeks, 0 no injury, 100 complete kill
Method: as §2

[17] = system: lambsquarters (Chenopodium album); test: Postemergence herbicidal activity; conditions: scored after 2 weeks, 0 no injury, 100 complete kill
Method: as §2

[18] = system: blackgrass (Alopecurus myosuroides); test: Postemergence herbicidal activity; conditions: scored after 2 weeks, 0 no injury, 100 complete kill
Method: as §2

[19] = system: Rox orange sorghum (Sorghum bicolor); test: Postemergence herbicidal activity; conditions: scored after 2 weeks, 0 no injury, 100 complete kill
Method: as §2

[20] = system: wild buckwheat (Polygonum convolvulus); test: Postemergence herbicidal activity; conditions: scored after 2 weeks, 0 no injury, 100 complete kill
Method: as §2

[21] = system: morningglory (Ipomoea hederacea); test: Postemergence herbicidal activity; conditions: scored after 2 weeks, 0 no injury, 100 complete kill
Method: as §2

[22] = system: velvetleaf (Abutilion theophrasti); test: Postemergence herbicidal activity; conditions: scored after 2 weeks, 0 no injury, 100 complete kill
Method: as §2

[23] = system: pigweed (Amaranthus retroflexus); test: Postemergence herbicidal activity; conditions: scored after 2 weeks, 0 no injury, 100 complete kill
Method: as §2

For `COc1cc(OC)n2nc(NS(=O)(=O)c3c(OCC(F)(F)F)cccc3C(F)(F)F)nc2n1` [Compound 12], the “Preemergence herbicidal activity SETFA” value ([1]; 17.5 g/Ha) was 90%, the “Preemergence herbicidal activity EPHHL” value ([2]; 17.5 g/Ha) was 90% and the “Preemergence herbicidal activity XANST” value ([3]; 17.5 g/Ha) was 80%. For the same compound, the “Preemergence herbicidal activity AVEFA” value (wild oats (Avena fatua) [4]; 17.5 g/Ha) was 30%, the “Preemergence herbicidal activity CHEAL” value ([5]; 17.5 g/Ha) was 100% and the “Preemergence herbicidal activity ALOMY” value ([6]; 17.5 g/Ha) was 70%. The “Preemergence herbicidal activity SORBI” value ([7]; 17.5 g/Ha) was 98%, the “Preemergence herbicidal activity ECHCG” value ([8]; 17.5 g/Ha) was 100% and the “Preemergence herbicidal activity IPOHE” value ([9]; 17.5 g/Ha) was 90%. The “Preemergence herbicidal activity DIGSA” value ([10]; 17.5 g/Ha) was 80%, the “Preemergence herbicidal activity ABUTH” value ([11]; 17.5 g/Ha) was 70% and the “Preemergence herbicidal activity AMARE” value ([12]; 17.5 g/Ha) was 98%. The “Postemergence herbicidal activity SETFA” value ([13]; 62.5 ppm) was 98%, the “Postemergence herbicidal activity STEME” value ([14]; 62.5 ppm) was 90% and the “Postemergence herbicidal activity XANST” value ([15]; 62.5 ppm) was 100%. The “Postemergence herbicidal activity AVEFA” value (wild oats (Avena fatua) [16]; 62.5 ppm) was 70%, the “Postemergence herbicidal activity VIOTR” value (viola (Viola tricolor); 62.5 ppm) was 100% and the “Postemergence herbicidal activity CHEAL” value ([17]; 62.5 ppm) was 100%. The “Postemergence herbicidal activity ALOMY” value ([18]; 62.5 ppm) was 60%, the “Postemergence herbicidal activity SORBI” value ([19]; 62.5 ppm) was 90% and the “Postemergence herbicidal activity POLCO” value ([20]; 62.5 ppm) was 98%. The “Postemergence herbicidal activity IPOHE” value ([21]; 62.5 ppm) was 98%, the “Postemergence herbicidal activity ABUTH” value ([22]; 62.5 ppm) was 98% and the “Postemergence herbicidal activity AMARE” value ([23]; 62.5 ppm) was 100%.
With `COc1cc(OC)n2nc(NS(=O)(=O)c3cc(Cl)ccc3OCCF)nc2n1` [Compound 13] the “Preemergence herbicidal activity SETFA” value ([1]; 35 g/Ha) was 95%, the “Preemergence herbicidal activity EPHHL” value ([2]; 35 g/Ha) was 50% and the “Preemergence herbicidal activity XANST” value ([3]; 35 g/Ha) was 50%. For the same compound, the “Preemergence herbicidal activity AVEFA” value (wild oats (Avena fatua) [4]; 35 g/Ha) was 85%, the “Preemergence herbicidal activity CHEAL” value ([5]; 35 g/Ha) was 95% and the “Preemergence herbicidal activity ALOMY” value ([6]; 35 g/Ha) was 95%. For the same compound, the “Preemergence herbicidal activity SORBI” value ([7]; 35 g/Ha) was 95%, the “Preemergence herbicidal activity ECHCG” value ([8]; 35 g/Ha) was 80% and the “Preemergence herbicidal activity IPOHE” value ([9]; 35 g/Ha) was 50%. The “Preemergence herbicidal activity DIGSA” value ([10]; 35 g/Ha) was 100%, the “Preemergence herbicidal activity ABUTH” value ([11]; 35 g/Ha) was 60% and the “Preemergence herbicidal activity AMARE” value ([12]; 35 g/Ha) was 95%. For the same compound, the “Postemergence herbicidal activity SETFA” value ([13]; 31.3 ppm) was 90%, the “Postemergence herbicidal activity STEME” value ([14]; 31.3 ppm) was 85% and the “Postemergence herbicidal activity XANST” value ([15]; 31.3 ppm) was 90%. For the same compound, the “Postemergence herbicidal activity AVEFA” value (wild oats (Avena fatua) [16]; 31.3 ppm) was 75%, the “Postemergence herbicidal activity VIOTR” value (viola (Viola tricolor); 31.3 ppm) was 80% and the “Postemergence herbicidal activity CHEAL” value ([17]; 31.3 ppm) was 70%. The “Postemergence herbicidal activity ALOMY” value ([18]; 31.3 ppm) was 85%, the “Postemergence herbicidal activity SORBI” value ([19]; 31.3 ppm) was 90% and the “Postemergence herbicidal activity POLCO” value ([20]; 31.3 ppm) was 80%. The “Postemergence herbicidal activity IPOHE” value ([21]; 31.3 ppm) was 70%, the “Postemergence herbicidal activity ABUTH” value ([22]; 31.3 ppm) was 70% and the “Postemergence herbicidal activity AMARE” value ([23]; 31.3 ppm) was 95%.
For `CCOc1cccc(C(F)(F)F)c1S(=O)(=O)Nc1nc2nc(OC)cc(OC)n2n1` [Compound 14, N-(5,7-dimethoxy[1,2,4]triazolo[1,5-a]-pyrimidin-2-yl)-2-ethoxy-6-(trifluoromethyl)benzenesulfonamide], the “Preemergence herbicidal activity SETFA” value ([1]; 17.5 g/Ha) was 85%, the “Preemergence herbicidal activity EPHHL” value ([2]; 17.5 g/Ha) was 85% and the “Preemergence herbicidal activity XANST” value ([3]; 17.5 g/Ha) was 70%. For the same compound, the “Preemergence herbicidal activity AVEFA” value (wild oats (Avena fatua) [4]; 17.5 g/Ha) was 60%, the “Preemergence herbicidal activity CHEAL” value ([5]; 17.5 g/Ha) was 95% and the “Preemergence herbicidal activity ALOMY” value ([6]; 17.5 g/Ha) was 80%. The “Preemergence herbicidal activity SORBI” value ([7]; 17.5 g/Ha) was 85%, the “Preemergence herbicidal activity ECHCG” value ([8]; 17.5 g/Ha) was 80% and the “Preemergence herbicidal activity IPOHE” value ([9]; 17.5 g/Ha) was 75%. The “Preemergence herbicidal activity DIGSA” value ([10]; 17.5 g/Ha) was 80%, the “Preemergence herbicidal activity ABUTH” value ([11]; 17.5 g/Ha) was 85% and the “Preemergence herbicidal activity AMARE” value ([12]; 17.5 g/Ha) was 95%. The “Postemergence herbicidal activity SETFA” value ([13]; 7.8 ppm) was 90%, the “Postemergence herbicidal activity STEME” value ([14]; 7.8 ppm) was 98% and the “Postemergence herbicidal activity XANST” value ([15]; 7.8 ppm) was 100%. The “Postemergence herbicidal activity AVEFA” value (wild oats (Avena fatua) [16]; 7.8 ppm) was 50%, the “Postemergence herbicidal activity VIOTR” value (viola (Viola tricolor); 7.8 ppm) was 90% and the “Postemergence herbicidal activity CHEAL” value ([17]; 7.8 ppm) was 100%. For the same compound, the “Postemergence herbicidal activity ALOMY” value ([18]; 7.8 ppm) was 70%, the “Postemergence herbicidal activity SORBI” value ([19]; 7.8 ppm) was 70% and the “Postemergence herbicidal activity POLCO” value ([20]; 7.8 ppm) was 90%. The “Postemergence herbicidal activity IPOHE” value ([21]; 7.8 ppm) was 80%, the “Postemergence herbicidal activity ABUTH” value ([22]; 7.8 ppm) was 90% and the “Postemergence herbicidal activity AMARE” value ([23]; 7.8 ppm) was 100%.
